Assay results reported in patent US10588962B2, “Carbohydrate-glycolipid conjugate vaccines” (Max-Planck-Gesellschaft zur Förderung der Wissenschaften …, priority 2012, dated 2020).

Assay: Immunogenic activity of further glycolipids conjugated to PS4
Conditions: glycolipid conjugated to PS4

(2S,3S,4R)-1-(6-(Carbonyl-1-ethyl-2-(tri(1-ethanoyl)1-ethanoyl-2-amino)-α-D-galactopyranosyl)-2-hexacosanoylaminooctadecane-3,4-diol [Compound 27a]
immunogenic activity: showed immunogenic activity
